According to patent US20230241226A1, “COMPOUNDS FOR TARGETED DEGRADATION OF CARRIER PROTEINS AND USES THEREOF” (CeMM - Forschungszentrum für Molekulare Medizin GmbH, priority 2019, published 2023):
Entries after “also recorded” stand apart in the source; their conditions may differ.

Columns and labels:
[1] = system: Peripheral blood mononuclear cells (PBMCs); experiment: Cellular viability assay (CellTiter-Glo), dose curve, FIG. 9; type: cell-based, human; conditions: PBMCs of healthy donors and patients (AML, multiple myeloma, B cell lymphoma, Hodgkin's lymphoma, CLL), 72 hours
Procedure: Relative viability of Peripheral blood mononuclear cells (PBMCs) after treatment with the d9A1-2 molecule PBMCs were isolated from healthy donors and patients with acute myeloid leukemia, multiple myeloma, B cell lymphoma and Hodgkin’s lymphoma, chronic lymphocytic leukeumia and treated with a dose curve of d9A1-2. Viability was assayed using the CellTiter-Glo assay, 72 hours post treatment.
Peripheral blood mononuclear cells (PBMCs) were isolated using Lymphoprep (Stem Cell Technologies) from healthy donors and patients with acute myeloid leukemia, multiple myeloma, B cell lymphoma, Hodgkin’s lymphoma, chronic lymphocytic leukeumia. For comparison of different samples, compounds were transferred on black 384-well plates using an acoustic liquid handler (Echo, Labcyte). Cells were seeded in these plates at densities of 20,000 cells per well in RPMI media (Gibco), supplemented with 10% fetal calf serum (Gibco). Viability was measured after 72 hours using the CellTiter-Glo assay (Promega) on a plate reader (SpectraMax i3x, Molecular Probes). All measurements were done in technical quadruplicates. Toxicity achieved by treatment with d9A1-2 was normalized to the reference controls. Dose response fitting curves were obtained and plotted using GraphPad Prism V8. Data is presented as mean +/- SD.

[2] = target: T1, dTAG-HA SLC38A2 (knock-in) (Homo sapiens, UniProt Q96QD8+Q96SW2); experiment: dTAG knock-in: degradation of endogenously tagged SLC38A2 induced by amino acid starvation; type: cell-based
T1 construct: SLC38A2 was selected for endogenous tagging at the N-terminus; endogenous in cells
T1 sequence (Q96SW2 whole entry): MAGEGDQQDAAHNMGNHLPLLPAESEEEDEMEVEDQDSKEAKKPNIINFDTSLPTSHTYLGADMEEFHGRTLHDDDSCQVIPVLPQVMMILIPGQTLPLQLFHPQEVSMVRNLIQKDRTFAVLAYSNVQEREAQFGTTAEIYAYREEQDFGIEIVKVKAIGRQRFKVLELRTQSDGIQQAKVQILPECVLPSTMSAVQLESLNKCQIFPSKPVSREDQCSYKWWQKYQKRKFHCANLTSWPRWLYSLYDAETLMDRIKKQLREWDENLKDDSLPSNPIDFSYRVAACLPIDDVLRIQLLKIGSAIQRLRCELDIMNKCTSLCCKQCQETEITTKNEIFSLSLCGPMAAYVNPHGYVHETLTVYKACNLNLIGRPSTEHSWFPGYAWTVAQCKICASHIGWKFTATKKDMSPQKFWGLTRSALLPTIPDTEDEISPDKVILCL
T1 sequence (Q16531 whole entry, further chain): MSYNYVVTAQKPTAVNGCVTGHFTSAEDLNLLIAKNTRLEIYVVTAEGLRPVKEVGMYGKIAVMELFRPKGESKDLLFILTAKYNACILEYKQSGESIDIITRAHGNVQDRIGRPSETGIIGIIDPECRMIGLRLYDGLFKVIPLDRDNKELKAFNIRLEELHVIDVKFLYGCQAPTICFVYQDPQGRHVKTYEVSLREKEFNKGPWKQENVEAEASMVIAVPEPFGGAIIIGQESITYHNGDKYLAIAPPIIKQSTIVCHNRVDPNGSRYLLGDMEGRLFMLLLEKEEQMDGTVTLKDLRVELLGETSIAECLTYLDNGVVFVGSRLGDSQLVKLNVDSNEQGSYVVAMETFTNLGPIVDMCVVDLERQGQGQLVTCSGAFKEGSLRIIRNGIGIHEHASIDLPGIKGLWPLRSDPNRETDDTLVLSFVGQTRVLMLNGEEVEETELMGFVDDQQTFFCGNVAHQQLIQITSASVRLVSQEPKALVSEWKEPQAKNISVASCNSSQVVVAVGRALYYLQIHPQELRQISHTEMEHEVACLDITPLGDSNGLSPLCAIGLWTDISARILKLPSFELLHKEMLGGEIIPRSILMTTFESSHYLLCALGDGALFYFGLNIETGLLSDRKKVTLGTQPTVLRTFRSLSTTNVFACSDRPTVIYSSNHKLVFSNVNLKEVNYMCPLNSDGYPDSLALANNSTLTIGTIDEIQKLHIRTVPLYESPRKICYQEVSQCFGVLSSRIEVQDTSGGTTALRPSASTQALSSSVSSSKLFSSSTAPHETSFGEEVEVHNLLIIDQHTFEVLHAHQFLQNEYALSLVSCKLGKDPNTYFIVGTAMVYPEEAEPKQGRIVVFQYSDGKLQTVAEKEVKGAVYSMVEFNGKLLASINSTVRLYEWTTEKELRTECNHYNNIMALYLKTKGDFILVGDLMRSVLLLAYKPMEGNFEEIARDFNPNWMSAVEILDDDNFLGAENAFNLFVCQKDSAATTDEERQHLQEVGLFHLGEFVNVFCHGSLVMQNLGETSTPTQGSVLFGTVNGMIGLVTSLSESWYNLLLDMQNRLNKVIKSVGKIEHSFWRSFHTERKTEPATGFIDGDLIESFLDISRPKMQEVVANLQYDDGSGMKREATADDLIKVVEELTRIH
T1 sequence (Q96QD8 other isoform, or with tags, fused parts or gaps): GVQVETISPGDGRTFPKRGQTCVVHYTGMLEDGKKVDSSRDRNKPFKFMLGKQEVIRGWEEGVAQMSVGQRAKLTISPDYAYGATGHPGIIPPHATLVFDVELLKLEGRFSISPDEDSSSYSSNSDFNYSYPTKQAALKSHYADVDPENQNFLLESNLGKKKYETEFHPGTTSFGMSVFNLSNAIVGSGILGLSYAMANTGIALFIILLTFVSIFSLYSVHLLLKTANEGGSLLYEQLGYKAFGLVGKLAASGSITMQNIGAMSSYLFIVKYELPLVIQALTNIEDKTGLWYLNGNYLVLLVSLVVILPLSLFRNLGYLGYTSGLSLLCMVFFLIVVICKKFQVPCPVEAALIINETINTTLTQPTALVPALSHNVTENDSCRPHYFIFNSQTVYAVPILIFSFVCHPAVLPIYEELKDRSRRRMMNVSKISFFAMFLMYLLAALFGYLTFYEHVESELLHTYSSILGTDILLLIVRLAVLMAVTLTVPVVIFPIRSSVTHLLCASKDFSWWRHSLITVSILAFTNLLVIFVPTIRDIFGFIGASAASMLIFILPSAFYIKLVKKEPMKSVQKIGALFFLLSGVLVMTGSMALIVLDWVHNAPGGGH
Description: (A) dTAG knock-in: SLC38A2 was tagged at N-terminus with dTAG-HA. Blasticidn was used as the selection marker. Single cell clones were derived and characterized as previously described. Two representative clones, B7 and C9 are presented here.
(B) The expression of dTAG-HA SLC38A2 was induced by replacing the normal culture media with media deprived of amino acids and FBS. Expression of the endogenous SLC is induced rapidly and was monitored by immunofluorescence imaging and quantified by automated image analysis. Representative images are shown.
(C)The effect of amino acid starvation on dTAG-HA SLC38A2 expression in HAP1 cells. Cells were treated with 0.5 µM dTAG13 and/or media lacking amino acids/FBS for either 6 or 10 hours, after which expression and degradation were monitored via western blot.
(D) Immunofluorescence imaging of two different HAP1 clones expressing dTAG-HA SLC38A2. Cells were incubated in media lacking amino acids/FBS for 8 hours and treated with 0.5 µM dTAG13 for either 8 or 10 hours. Expression of the endogenous SLC is induced rapidly and was monitored by immunofluorescence and quantified by automated image analysis. Representative images are presented.
HEK293T, LS180 were obtained from ATCC (Manassas, VA, USA), HAP1 WT, HAP1 -/-SLC38A2 (HZGHC001975c003), HAP1 -/-SLC38A9 (HZGHC000777c011) were obtained from Horizon Genomics. […]
For immunoblotting, whole cell extracts were prepared using RIPA lysis buffer (25 mM Tris/HCl pH 7.6, 150 mM NaCl, 1% NP-40, 1% sodium deoxycholate, 0.1% SDS, EDTA-free protease inhibitor (Roche) and phosphatase inhibitors 2+3 (Sigma- Aldrich)). […] Protein extracts were quantified and normalized using the BCA assay (Thermo Scientific). […]

Cc1cc(-c2ccc(C(=O)NCCOCCOCCOCCOCCNc3cccc4c3C(=O)N(C3CCC(=O)NC3=O)C4=O)cc2N2CCC(c3[nH]cnc3C)CC2)ccc1F (stereo not shown) [d9A1-2]
toxicity (relative viability) in patient versus healthy donor PBMCs [1]: more toxic in patient samples, than in healthy donor samples

CC[C@H](C(=O)N1CCCC[C@H]1C(=O)O[C@H](CCc1ccc(OC)c(OC)c1)c1ccccc1OCC(=O)NCCCCCCOc1cccc2c1C(=O)N(C1CCC(=O)NC1=O)C2=O)c1cc(OC)c(OC)c(OC)c1 (stereo partly shown) [dTAG13]
degradation of knock-in dTAG-HA SLC38A2 (western blot) ([2]; HAP1, 0.5 µM cotreatment with media lacking amino acids/FBS, 6 or 10 hours): Near complete degradation | SLC38A2 expression after pre-treatment (immunofluorescence, automated image analysis) ([2]; HAP1 knock-in clones, 0.5 µM, 2 hours pre-treatment, 8 hours starvation): completely abrogate any SLC expression; also recorded: completely ablated | reduction of SLC38A2 expression by co-treatment ([2]; HAP1 knock-in clones, 0.5 µM, co-treatment with starvation 8 hours): more than 50%
